# From ChEMBL document CHEMBL5465560, “Selectivity Literature for EUbOPEN Chemogenomic Library” (2024)
# Columns and labels:
# [1] = target: Serine/threonine-protein kinase Nek4 (Homo sapiens) (UniProt P51957); test: Selectivity interaction (KinomeScan (DiscoverX)) EUB0000229b NEK4; conditions: at 10 µM
# [2] = target: Mitogen-activated protein kinase kinase kinase 4 (Homo sapiens) (UniProt Q9Y6R4); test: Selectivity interaction (KinomeScan (DiscoverX)) EUB0000595a MAP3K4; conditions: at 10 µM
# [3] = target: Receptor-interacting serine/threonine-protein kinase 2 (Homo sapiens, UniProt O43353); test: Selectivity interaction (KinomeScan (DiscoverX)) EUB0000045b RIPK2
# Chain of Receptor-interacting serine/threonine-protein kinase 2 (O43353 whole entry): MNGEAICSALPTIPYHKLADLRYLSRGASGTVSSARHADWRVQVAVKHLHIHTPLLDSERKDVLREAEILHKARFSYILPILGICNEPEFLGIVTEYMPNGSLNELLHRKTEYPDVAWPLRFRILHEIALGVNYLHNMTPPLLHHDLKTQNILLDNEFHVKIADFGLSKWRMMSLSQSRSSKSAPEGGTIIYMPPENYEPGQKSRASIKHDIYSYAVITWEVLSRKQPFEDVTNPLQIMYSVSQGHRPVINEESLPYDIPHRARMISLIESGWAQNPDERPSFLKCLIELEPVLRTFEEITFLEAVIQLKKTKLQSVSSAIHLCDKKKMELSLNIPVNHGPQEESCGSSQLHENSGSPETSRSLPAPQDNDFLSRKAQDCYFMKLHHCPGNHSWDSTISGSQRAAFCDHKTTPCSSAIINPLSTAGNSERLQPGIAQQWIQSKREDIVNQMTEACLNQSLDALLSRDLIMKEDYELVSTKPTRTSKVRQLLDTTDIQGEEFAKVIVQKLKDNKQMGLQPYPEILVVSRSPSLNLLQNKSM
# [4] = target: T1, Dual specificity mitogen-activated protein kinase kinase 3 (Homo sapiens) (UniProt P46734); test: Selectivity interaction (KinomeScan (DiscoverX)) EUB0000666a MAP2K3; conditions: at 10 µM
# T1 sequence (whole entry): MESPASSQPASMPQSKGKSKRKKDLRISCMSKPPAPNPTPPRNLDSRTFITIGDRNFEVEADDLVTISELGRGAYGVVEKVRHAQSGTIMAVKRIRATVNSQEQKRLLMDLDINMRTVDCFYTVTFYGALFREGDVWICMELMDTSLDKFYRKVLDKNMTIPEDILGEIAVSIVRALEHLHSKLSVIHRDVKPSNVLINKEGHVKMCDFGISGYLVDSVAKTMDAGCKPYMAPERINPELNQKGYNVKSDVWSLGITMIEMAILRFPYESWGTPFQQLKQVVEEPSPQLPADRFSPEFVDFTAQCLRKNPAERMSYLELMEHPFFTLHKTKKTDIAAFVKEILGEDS
# [5] = target: T2, Casein kinase I isoform alpha-like (Homo sapiens) (UniProt Q8N752); test: Selectivity interaction (KinomeScan (DiscoverX)) EUB0000666a CSNK1A1L; conditions: at 10 µM
# T2 sequence (whole entry): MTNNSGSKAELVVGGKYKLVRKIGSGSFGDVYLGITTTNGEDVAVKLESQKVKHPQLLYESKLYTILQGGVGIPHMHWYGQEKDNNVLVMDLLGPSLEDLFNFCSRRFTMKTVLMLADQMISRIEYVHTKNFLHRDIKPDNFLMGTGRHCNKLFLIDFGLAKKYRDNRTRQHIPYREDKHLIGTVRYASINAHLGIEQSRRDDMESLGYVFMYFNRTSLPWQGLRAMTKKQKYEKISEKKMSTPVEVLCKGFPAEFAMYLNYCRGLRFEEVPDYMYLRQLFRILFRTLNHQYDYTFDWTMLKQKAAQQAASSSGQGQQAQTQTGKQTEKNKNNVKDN
# [6] = target: Hepatocyte growth factor receptor (Homo sapiens, UniProt P08581); test: (§1) Selectivity interaction (KinomeScan (DiscoverX)) EUB0001049a MET; conditions: at 1 µM
# [7] = tested on: Hepatocyte growth factor receptor (Homo sapiens), P08581 [Y1235D]; test: as §1; conditions: at 1 µM
# [8] = tested on: Hepatocyte growth factor receptor (Homo sapiens), P08581 [M1250T]; test: as §1; conditions: at 1 µM
# [9] = target: Proto-oncogene tyrosine-protein kinase Src (Homo sapiens, UniProt P12931); test: Selectivity interaction (Upstate Kinase Profiler service (Millipore)) EUB0000056c SRC; conditions: at 1 µM
# Chain of Proto-oncogene tyrosine-protein kinase Src (P12931 2-536 limits assumed): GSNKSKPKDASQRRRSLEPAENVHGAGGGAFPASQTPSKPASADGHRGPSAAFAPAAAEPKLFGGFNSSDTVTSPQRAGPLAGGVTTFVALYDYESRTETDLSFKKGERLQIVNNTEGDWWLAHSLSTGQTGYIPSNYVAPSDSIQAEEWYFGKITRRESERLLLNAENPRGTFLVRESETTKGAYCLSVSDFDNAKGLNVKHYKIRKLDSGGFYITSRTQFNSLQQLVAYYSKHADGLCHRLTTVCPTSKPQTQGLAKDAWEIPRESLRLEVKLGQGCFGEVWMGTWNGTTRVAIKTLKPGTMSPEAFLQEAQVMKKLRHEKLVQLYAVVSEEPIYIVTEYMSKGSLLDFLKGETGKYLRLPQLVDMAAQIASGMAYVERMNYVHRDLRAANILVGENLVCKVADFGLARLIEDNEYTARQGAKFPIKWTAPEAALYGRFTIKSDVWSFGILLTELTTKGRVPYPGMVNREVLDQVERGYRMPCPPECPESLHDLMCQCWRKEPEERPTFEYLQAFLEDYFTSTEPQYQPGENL
# [10] = target: Hepatocyte growth factor-like protein (Homo sapiens) (UniProt P26927); conditions: at 1 µM
# [11] = target: Tyrosine-protein kinase HCK (Homo sapiens) (UniProt P08631); test: Selectivity interaction (Upstate Kinase Profiler service (Millipore)) EUB0000056c HCK; conditions: at 1 µM
# Chain of Tyrosine-protein kinase HCK (Homo sapiens) (P08631 2-526 limits assumed): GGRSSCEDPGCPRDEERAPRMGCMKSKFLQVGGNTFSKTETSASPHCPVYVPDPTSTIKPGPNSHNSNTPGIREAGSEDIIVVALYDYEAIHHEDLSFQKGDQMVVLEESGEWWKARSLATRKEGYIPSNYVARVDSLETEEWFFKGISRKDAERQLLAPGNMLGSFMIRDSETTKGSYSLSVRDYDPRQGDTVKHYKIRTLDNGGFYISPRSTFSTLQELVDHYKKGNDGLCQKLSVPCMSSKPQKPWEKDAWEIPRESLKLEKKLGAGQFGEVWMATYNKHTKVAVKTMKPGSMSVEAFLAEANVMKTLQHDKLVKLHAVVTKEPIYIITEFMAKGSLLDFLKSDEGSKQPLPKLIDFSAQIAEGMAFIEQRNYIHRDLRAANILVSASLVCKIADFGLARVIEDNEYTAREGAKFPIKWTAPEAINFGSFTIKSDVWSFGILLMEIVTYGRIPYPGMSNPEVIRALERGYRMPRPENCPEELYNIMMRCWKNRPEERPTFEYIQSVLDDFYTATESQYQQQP
# [12] = target: Cyclin-C/Cyclin-dependent kinase 19 (Homo sapiens) (UniProt Q9BWU1+P24863); test: Selectivity interaction (ProQinase) EUB0000171b CDK19; assay type: protein-complex assay
# [13] = target: Dual specificity protein kinase CLK1 (Homo sapiens, UniProt P49759); test: Selectivity interaction (KinomeScan (DiscoverX)) EUB0001619a CLK1; conditions: at 1 µM
# Chain of Dual specificity protein kinase CLK1 (P49759 whole entry, looked up): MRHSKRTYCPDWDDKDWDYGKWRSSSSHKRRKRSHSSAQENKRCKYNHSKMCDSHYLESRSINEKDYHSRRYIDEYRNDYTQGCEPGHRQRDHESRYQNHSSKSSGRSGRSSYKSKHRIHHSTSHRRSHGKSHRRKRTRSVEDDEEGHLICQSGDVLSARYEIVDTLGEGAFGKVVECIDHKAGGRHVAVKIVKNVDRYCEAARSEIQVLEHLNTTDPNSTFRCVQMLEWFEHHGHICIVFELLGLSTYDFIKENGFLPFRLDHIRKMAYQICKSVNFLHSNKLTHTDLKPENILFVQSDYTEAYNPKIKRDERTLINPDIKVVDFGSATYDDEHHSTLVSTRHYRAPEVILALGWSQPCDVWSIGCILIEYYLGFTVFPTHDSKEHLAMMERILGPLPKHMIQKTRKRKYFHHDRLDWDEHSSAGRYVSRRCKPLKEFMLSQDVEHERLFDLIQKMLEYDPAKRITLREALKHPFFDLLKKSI
# [14] = target: T3, Cytoplasmic tyrosine-protein kinase BMX (Homo sapiens) (UniProt P51813); test: Selectivity interaction (KinaseProfiler screening (Millipore)) EUB0000601a BMX; conditions: at 3 µM
# T3 sequence (whole entry): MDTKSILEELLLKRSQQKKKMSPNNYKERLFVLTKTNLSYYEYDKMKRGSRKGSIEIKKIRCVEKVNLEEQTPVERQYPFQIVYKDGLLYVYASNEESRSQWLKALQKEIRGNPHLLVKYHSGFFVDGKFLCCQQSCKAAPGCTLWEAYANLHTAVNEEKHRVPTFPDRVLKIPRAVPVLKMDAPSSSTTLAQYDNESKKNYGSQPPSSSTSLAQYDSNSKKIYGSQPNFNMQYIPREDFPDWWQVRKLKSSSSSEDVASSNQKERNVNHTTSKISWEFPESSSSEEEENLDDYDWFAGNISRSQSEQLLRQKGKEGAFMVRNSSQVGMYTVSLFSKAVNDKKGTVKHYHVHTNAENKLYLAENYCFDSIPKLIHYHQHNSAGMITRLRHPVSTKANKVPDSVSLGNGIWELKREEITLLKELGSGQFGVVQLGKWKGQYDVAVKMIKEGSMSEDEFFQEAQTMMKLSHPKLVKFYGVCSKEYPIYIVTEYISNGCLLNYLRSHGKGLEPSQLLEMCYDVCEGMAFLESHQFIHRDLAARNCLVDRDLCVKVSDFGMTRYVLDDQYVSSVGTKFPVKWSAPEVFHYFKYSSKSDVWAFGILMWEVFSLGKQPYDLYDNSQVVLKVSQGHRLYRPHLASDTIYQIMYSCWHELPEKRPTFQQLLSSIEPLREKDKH
# [15] = tested on: Epidermal growth factor receptor (Homo sapiens), P00533 [UNDEFINED MUTATION]; test: Selectivity interaction (KinomeScan (DiscoverX)) EUB0000607a EGFR; conditions: at 10 µM
# [16] = target: Ribosomal protein S6 kinase alpha-3 (Homo sapiens, UniProt P51812); test: Selectivity interaction (ActivX KiNativ screen (kinase selectivity in THP-1 cell lysates)) EUB0000639a RPS6KA3; assay type: subcellular; conditions: lysate, at 5 µM
# [17] = target: Phosphatidylinositol 4,5-bisphosphate 3-kinase catalytic subunit gamma isoform (Homo sapiens) (UniProt P48736); test: Selectivity interaction (KinomeScan (DiscoverX)) EUB0000655a PIK3CG; conditions: at 10 µM
# [18] = target: Serine/threonine-protein kinase MRCK alpha (Homo sapiens) (UniProt Q5VT25); test: Selectivity interaction (KinomeScan (DiscoverX)) EUB0000092b CDC42BPA; conditions: at 10 µM
# Chain of Serine/threonine-protein kinase MRCK alpha (Homo sapiens) (Q5VT25 whole entry): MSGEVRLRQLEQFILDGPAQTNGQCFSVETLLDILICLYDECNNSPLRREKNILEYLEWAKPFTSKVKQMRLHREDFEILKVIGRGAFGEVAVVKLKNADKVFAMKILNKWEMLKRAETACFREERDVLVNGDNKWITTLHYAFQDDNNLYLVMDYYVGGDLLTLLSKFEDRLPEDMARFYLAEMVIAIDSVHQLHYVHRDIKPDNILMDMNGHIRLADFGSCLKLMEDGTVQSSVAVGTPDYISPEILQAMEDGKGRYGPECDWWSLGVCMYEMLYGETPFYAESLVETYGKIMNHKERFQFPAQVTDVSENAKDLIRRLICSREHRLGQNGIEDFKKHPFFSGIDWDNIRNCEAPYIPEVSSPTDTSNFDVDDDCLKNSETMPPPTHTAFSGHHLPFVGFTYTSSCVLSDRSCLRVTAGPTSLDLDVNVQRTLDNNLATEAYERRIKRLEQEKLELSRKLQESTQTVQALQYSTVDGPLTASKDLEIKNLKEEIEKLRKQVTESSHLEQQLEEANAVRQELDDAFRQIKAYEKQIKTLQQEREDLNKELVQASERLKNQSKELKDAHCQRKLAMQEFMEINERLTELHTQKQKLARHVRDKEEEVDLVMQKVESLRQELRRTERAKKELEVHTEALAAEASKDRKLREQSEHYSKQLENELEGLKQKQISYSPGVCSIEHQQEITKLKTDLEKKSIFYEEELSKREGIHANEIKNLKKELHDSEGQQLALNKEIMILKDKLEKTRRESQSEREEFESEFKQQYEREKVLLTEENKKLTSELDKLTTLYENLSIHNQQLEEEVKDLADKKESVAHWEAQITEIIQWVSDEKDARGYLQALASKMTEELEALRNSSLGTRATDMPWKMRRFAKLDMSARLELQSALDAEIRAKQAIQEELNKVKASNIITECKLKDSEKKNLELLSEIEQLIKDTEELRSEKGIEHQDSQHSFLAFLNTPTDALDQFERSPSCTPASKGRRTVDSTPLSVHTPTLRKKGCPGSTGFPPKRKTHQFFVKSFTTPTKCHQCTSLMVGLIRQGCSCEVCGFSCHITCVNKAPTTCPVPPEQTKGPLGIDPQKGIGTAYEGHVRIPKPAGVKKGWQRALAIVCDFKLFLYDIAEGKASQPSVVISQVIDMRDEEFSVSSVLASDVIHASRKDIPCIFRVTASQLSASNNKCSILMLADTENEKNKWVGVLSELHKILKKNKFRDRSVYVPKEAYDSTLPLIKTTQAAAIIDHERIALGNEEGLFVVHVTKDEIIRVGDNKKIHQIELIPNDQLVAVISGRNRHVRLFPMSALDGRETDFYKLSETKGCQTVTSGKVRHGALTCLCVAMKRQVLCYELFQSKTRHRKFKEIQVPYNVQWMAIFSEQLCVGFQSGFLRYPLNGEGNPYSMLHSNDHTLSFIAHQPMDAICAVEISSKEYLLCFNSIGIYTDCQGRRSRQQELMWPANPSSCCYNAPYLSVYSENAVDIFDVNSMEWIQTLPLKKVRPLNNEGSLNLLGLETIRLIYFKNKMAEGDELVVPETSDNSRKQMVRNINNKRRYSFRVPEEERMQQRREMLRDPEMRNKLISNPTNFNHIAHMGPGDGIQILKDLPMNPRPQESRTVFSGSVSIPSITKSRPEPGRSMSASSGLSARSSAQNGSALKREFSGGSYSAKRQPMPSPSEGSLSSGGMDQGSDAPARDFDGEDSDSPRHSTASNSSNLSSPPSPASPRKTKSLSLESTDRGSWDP
# [19] = target: Serine/threonine-protein kinase MRCK gamma (Homo sapiens) (UniProt Q6DT37); test: Selectivity interaction (Ambit KINOMEscan and KiNATiv profiling in Jurkat cells) EUB0000090b CDC42BPG; assay type: cell-based; conditions: at 1 µM
# Chain of Serine/threonine-protein kinase Nek4 (Homo sapiens) (P51957 whole entry, looked up): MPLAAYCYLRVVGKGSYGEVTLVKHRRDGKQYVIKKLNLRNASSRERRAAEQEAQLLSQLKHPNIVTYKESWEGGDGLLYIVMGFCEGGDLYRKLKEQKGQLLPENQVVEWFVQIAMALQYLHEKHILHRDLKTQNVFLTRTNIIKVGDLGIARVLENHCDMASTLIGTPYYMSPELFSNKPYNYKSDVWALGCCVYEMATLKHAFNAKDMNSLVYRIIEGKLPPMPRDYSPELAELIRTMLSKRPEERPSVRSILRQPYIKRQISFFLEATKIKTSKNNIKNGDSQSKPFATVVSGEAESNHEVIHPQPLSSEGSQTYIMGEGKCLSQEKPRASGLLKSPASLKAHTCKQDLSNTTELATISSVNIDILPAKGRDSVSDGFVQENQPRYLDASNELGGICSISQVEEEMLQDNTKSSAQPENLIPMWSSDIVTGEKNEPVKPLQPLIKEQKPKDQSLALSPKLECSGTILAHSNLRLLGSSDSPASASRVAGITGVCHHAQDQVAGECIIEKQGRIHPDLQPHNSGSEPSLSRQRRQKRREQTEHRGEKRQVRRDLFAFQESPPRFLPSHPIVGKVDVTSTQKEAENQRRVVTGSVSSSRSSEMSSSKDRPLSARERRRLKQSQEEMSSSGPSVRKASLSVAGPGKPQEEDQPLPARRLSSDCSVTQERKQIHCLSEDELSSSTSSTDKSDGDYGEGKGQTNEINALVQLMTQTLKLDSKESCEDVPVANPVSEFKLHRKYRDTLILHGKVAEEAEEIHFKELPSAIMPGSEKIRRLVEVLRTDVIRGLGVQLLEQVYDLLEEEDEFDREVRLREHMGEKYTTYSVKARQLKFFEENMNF
compound,measurement,setting,value
COc1cc(N(C)c2ccnc3ccc(C(F)(F)F)cc23)cc(OC)c1OC,% binding,[1],82%
COCC(=O)NC/C=C/c1ccc2ncnc(Nc3ccc(Oc4ccc(C)nc4)c(C)c3)c2c1 [CP-724714],% of control,[2],97%
C=CC(=O)Nc1cc(-n2c(=O)ccc3cnc4ccc(-c5ccc(NS(C)(=O)=O)cc5)cc4c32)ccc1C,% of control,[3]; at 1 µM,100%
same,% of control,[3]; at 10 µM,92%
O=C(NOC[C@H](O)CO)c1ccc(F)c(F)c1Nc1ccc(I)cc1F,% of control,[4],89%
same,% of control,[5],80%
COc1cc(Nc2nc(C)cc(-c3cnn4nc(OC)ccc34)n2)cc(C(F)(F)F)c1,% of control,[6],93%
same,% of control,[7],82%
same,% of control,[8],100%
Cc1ccc(-c2ccc3c(ccc4sc5c(c43)NC[C@@H](C)NC5=O)n2)cn1,% of inhibition,[9],12%
same,% of inhibition,[10],6%
same,% of inhibition,[11],46%
C=CC(=O)Nc1cccc(C(=O)Nc2ccc(Nc3cc(-c4[nH]c(SC)nc4C)ccn3)cc2)c1,% of control,[12]; at 1 µM,72%
same,% of control,[12]; at 5 µM,65%
N#Cc1cccc(-c2c[nH]c3ncnc(N4CCOCC4)c23)c1,% of control,[13],63%
CCc1cc(Nc2nccc(-c3c(-c4ccc(OC)c(C(=O)Nc5c(F)cccc5F)c4)nc4ccccn34)n2)c(OC)cc1N1CCC(N2CCN(S(C)(=O)=O)CC2)CC1,% of inhibition,[14],71%
CNC(=O)Nc1ccc(-c2nc(N3CC4CCC(C3)O4)c3cnn(C4CCC5(CC4)OCCO5)c3n2)cc1,% of control,[15],55%
CC[C@@H]1[C@H](F)C(=O)N[C@@H]1COc1nccc2cc(C(N)=O)c(OC)cc12 [ZIMLOVISERTIB],% of inhibition,[16],1.6%
CN(C)CCOc1ccc(-c2nc(-c3ccncc3)c(-c3ccc4c(c3)CC/C4=N\O)[nH]2)cc1,% of control,[17],84%
CCC(=O)N1CCN(c2ccc(-n3c(=O)ccc4cnc5ccc(-c6cnc7ccccc7c6)cc5c43)cc2C(F)(F)F)CC1,% of control,[18],0.7%
CN(C)C/C=C/C(=O)Nc1ccc(C(=O)N2CCCC(Nc3ncc(Cl)c(-c4c[nH]c5ccccc45)n3)C2)cc1 (stereo unspecified),% of control,[19],90%
